Values quoted from earlier work, collected in US20110305778A1, “Chemically Stabilized Anti-Dandruff Compositions For Use In Personal Care Compositions” (priority 2010, published 2011).

conditions: value in parenthesis after each coordinating compound; no method given

SMILES	Log Zn Binding Constant
O=C(O)CCCCC(=O)O [Adipic Acid]	2.6
N=C(N)NCCC[C@H](N)C(=O)O [Arginine]	4.2
OB(O)O [Boric Acid]	0.9
O=C(O)O [Carbonic Acid]	3.9
Cl [Chloride]	−0.3
O=C(O)CC(O)(CC(=O)O)C(=O)O [Citric Acid]	4.8
O=C(O)CNCCNCC(=O)O [EDDA]	11.1
O=C(O)C[C@H](NCCN[C@@H](CC(=O)O)C(=O)O)C(=O)O [EDDS]	13.5
O=C(O)CN(CCN(CC(=O)O)CC(=O)O)CC(=O)O [EDTA]	16.5
O=CO [Formic Acid]	0.6
O=C(O)CC(=O)O [Malonic Acid]	2.9
O=C(O)CN(CC(=O)O)CC(=O)O [NTA]	10.7
O=P(O)(O)O [Phosphoric Acid]	2.4
O=C(O)c1ccccc1C(=O)O [Phthalic Acid]	2.2
O=S(=O)(O)O [Sulfuric Acid]	0.9
Cc1cc(C2(c3cc(C)c(O)c(CN(CC(=O)O)CC(=O)O)c3)OS(=O)(=O)c3ccccc32)cc(CN(CC(=O)O)CC(=O)O)c1O [Xylenol Orange]	10.3

Results, then the compound that gave them:

Log Zn Binding Constant	SMILES
1.0	CC(=O)O [Acetic Acid]
5.9	N[C@@H](CC(=O)O)C(=O)O [Aspartic Acid]
9.1	N[C@@H](CS)C(=O)O [Cysteine]
6.7	N[C@@H](CSSC[C@H](N)C(=O)O)C(=O)O [Cystine]
4.5	N[C@@H](CCC(=O)O)C(=O)O [Glutamic Acid]
5.0	NCC(=O)O [Glycine]
2.0	O=C(O)CO [Glycolic Acid]
1.9	CC(O)C(=O)O (stereo not shown) [Lactic Acid]
2.9	O=C(O)CC(O)C(=O)O (stereo not shown) [Malic Acid]
4.4	CSCC[C@H](N)C(=O)O [Methionine]
1.8	O=C(O)CCC(=O)O [Succinic Acid]
3.2	O=C(O)C(O)C(=O)O [Tatronic Acid]
